Experimental data taken from patent publication US20140249135A1, “PIM KINASE INHIBITORS AND METHODS OF THEIR USE” (NOVARTIS AG, priority 2007, published 2014).

Key:
Assay type in all cases: biochemical
[1] = biological target: Pim1 kinase (Homo sapiens, UniProt P11309); experiment: Pim1 ATP depletion assay; settings: Pim1 ATP depletion assay; read-out: PIM1 IC50;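 also: Luciferase-luciferin luminescence readout of residual ATP after PIM1 transfers phosphate to a peptide substrate, 40 µM ATP added, reaction run to roughly half ATP consumption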
[2] = biological target: Pim2 kinase (Homo sapiens, UniProt Q9P1W9); experiment: Pim2 ATP depletion assay; settings: read-out: PIM2 IC50;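 also: Luciferase-based luminescent readout of ATP remaining after PIM2 phosphorylates a BAD peptide, final 5 nM enzyme, 4 µM ATP, 10 µM peptide, 2.5% DMSO, run to roughly half ATP consumption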
[3] = biological target: Pim3 kinase (Homo sapiens, UniProt Q86V86); experiment: Pim3 ATP depletion assay; settings: read-out: PIM3 IC50

Pim2 kinase, sequence (Q9P1W9 whole entry): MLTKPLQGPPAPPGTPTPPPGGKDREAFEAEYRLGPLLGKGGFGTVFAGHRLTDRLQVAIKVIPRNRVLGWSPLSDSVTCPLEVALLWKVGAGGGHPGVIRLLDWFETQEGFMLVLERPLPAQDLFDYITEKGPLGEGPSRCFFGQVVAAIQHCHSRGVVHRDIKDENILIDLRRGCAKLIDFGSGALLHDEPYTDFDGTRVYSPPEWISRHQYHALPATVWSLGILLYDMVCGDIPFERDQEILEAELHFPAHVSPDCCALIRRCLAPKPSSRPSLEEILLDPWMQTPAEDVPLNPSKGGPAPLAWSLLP
Pim1 kinase, sequence (P11309 whole entry): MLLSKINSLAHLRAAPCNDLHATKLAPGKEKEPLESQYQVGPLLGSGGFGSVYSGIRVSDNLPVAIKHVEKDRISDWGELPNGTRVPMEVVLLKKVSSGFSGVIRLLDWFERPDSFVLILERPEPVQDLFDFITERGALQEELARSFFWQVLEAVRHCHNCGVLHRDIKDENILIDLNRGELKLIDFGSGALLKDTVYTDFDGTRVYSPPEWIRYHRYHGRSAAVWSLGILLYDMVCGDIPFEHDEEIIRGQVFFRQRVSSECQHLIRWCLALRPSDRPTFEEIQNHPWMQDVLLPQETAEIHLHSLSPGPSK

SMILES | IC50 [1] | IC50 [2] | IC50 [3]
Nc1ccc(-c2ccccc2F)nc1C(=O)Nc1cnccc1-c1cncc(F)c1 [Example 601, 3-amino-N-(5-fluoro-3,4′-bipyridin-3′-yl)-6-(2-fluorophenyl)pyridine-2-carboxamide] | < 1 µM | < 1 µM | < 1 µM
Nc1ccc(-c2ccccc2F)nc1C(=O)Nc1cnccc1-c1cncnc1 [Example 602, 3-amino-6-(2-fluorophenyl)-N-(4-pyrimidin-5-ylpyridin-3-yl)pyridine-2-carboxamide] | < 1 µM | 1 to 10 µM | < 1 µM
Nc1ccc(-c2ccccc2F)nc1C(=O)Nc1cnccc1-c1cnc(N)c(C(F)(F)F)c1 [Example 603, 3-amino-N-[6-amino-5-(tri-fluoromethyl)-3,4′-bipyridin-3′-yl]-6-(2-fluorophenyl)pyridine-2-carboxamide] | < 1 µM | < 1 µM | < 1 µM
Nc1cc(-c2ccncc2NC(=O)c2nc(-c3ccccc3F)ccc2N)ccn1 [Example 605, 3-amino-N-(2′-amino-4,4′-bipyridin-3-yl)-6-(2-fluorophenyl)pyridine-2-carboxamide] | < 1 µM | < 1 µM | < 1 µM
Nc1ccc(-c2c(F)cccc2F)nc1C(=O)Nc1cnccc1-c1cc(F)nc(F)c1 [Example 607, 3-amino-N-(2′,6′-difluoro-4,4′-bipyridin-3-yl)-6-(2,6-difluorophenyl)pyridine-2-carboxamide] | < 1 µM | < 1 µM | < 1 µM
COc1cc(-c2ccncc2NC(=O)c2nc(-c3c(F)cccc3F)ccc2N)cc(N)n1 [Example 608, 3-Amino-6-(2,6-difluoro-phenyl)-pyridine-2-carboxylic acid (6′-amino-2′-methoxy-[4,4′]bi-pyridinyl-3-yl)-amide] | < 1 µM | < 1 µM | < 1 µM
COc1cncc(-c2ccncc2NC(=O)c2nc(-c3ccccc3F)ccc2N)c1 [Example 609, 3-amino-6-(2-fluorophenyl)-N-(5-methoxy-3,4′-bipyridin-3′-yl)pyridine-2-carboxamide] | < 1 µM | < 1 µM | < 1 µM
COc1cnccc1-c1ccncc1NC(=O)c1nc(-c2ccccc2F)ccc1N [Example 610, 3-amino-6-(2-fluorophenyl)-N-(3′-methoxy-4,4′-bipyridin-3-yl)pyridine-2-carboxamide] | < 1 µM | < 1 µM | < 1 µM
COc1ncccc1-c1ccncc1NC(=O)c1nc(-c2ccccc2F)ccc1N [Example 611, 3-amino-6-(2-fluorophenyl)-N-(2-methoxy-3,4′-bipyridin-3′-yl)pyridine-2-carboxamide] | < 1 µM | < 1 µM | < 1 µM
Cc1cnccc1-c1ccncc1NC(=O)c1nc(-c2ccccc2F)ccc1N [Example 613, 3-amino-6-(2-fluorophenyl)-N-(3′-methyl-4,4′-bipyridin-3-yl)pyridine-2-carboxamide] | < 1 µM | < 1 µM | < 1 µM
Nc1ccc(-c2ccccc2F)nc1C(=O)Nc1cnccc1-c1ccncc1F [Example 616, 3-amino-N-(3′-fluoro-4,4′-bipyridin-3-yl)-6-(2-fluorophenyl)pyridine-2-carboxamide] | < 1 µM | < 1 µM | < 1 µM
N#Cc1cc(-c2ccncc2NC(=O)c2nc(-c3c(F)cccc3F)ccc2N)ccn1 [Example 618, 3-amino-N-(2′-cyano-4,4′-bipyridin-3-yl)-6-(2,6-difluorophenyl)pyridine-2-carboxamide] | < 1 µM | < 1 µM | < 1 µM
CCc1cc(-c2ccncc2NC(=O)c2nc(-c3c(F)cccc3F)ccc2N)cc(N)n1 [Example 620, 3-Amino-6-(2,6-difluoro-phenyl)-pyridine-2-carboxylic acid (6′-amino-2′-ethyl-[4,4′]bipyridinyl-3-yl)-amide] | < 1 µM | < 1 µM | < 1 µM
COc1cc(N)nc(-c2ccncc2NC(=O)c2nc(-c3c(F)cccc3F)ccc2N)c1 [Example 622, 3-Amino-6-(2,6-difluoro-phenyl)-pyridine-2-carboxylic acid (6-amino-4-methoxy-[2,4′]bipyridinyl-3′-yl)-amide] | < 1 µM | < 1 µM | < 1 µM
Cc1cc(-c2ccncc2NC(=O)c2nc(-c3c(F)cccc3F)ccc2N)cc(N)n1 [Example 623, 3-amino-N-(2′-amino-6′-methyl-4,4′-bipyridin-3-yl)-6-(2,6-difluorophenyl)pyridine-2-carboxamide] | < 1 µM | < 1 µM | < 1 µM
Nc1cncc(-c2ccncc2NC(=O)c2nc(-c3ccccc3F)ccc2N)n1 [Example 625, 3-amino-N-[4-(6-amino-pyrazin-2-yl)pyridin-3-yl]-6-(2-fluorophenyl)pyridine-2-carboxamide] | < 1 µM | < 1 µM | < 1 µM
Nc1cc(-c2ccncc2NC(=O)c2nc(-c3ccccc3F)ccc2N)nc(N)n1 [Example 627, 3-amino-N-[4-(2,6-diaminopyrimidin-4-yl)pyridin-3-yl]-6-(2-fluorophenyl)pyridine-2-carboxamide] | < 1 µM | < 1 µM | < 1 µM
Nc1nccc(-c2ccncc2NC(=O)c2nc(-c3c(F)cccc3F)ccc2N)n1 [Example 628, 3-amino-N-[4-(2-aminopyrimidin-4-yl)pyridin-3-yl]-6-(2,6-difluorophenyl)pyridine-2-carboxamide] | < 1 µM | < 1 µM | < 1 µM
Nc1ccc(-c2c(F)cccc2F)nc1C(=O)Nc1cnccc1-c1cccnc1N [Example 630, 3-amino-N-(2-amino-3,4′-bipyridin-3′-yl)-6-(2,6-difluorophenyl)pyridine-2-carboxamide] | < 1 µM | < 1 µM | < 1 µM
N[C@H]1CCCN(c2ccncc2NC(=O)c2cccc(-c3nccs3)n2)C1 [Example 631, N-{4-[(3S)-3-amino-piperidin-1-yl]pyridin-3-yl}-6-(1,3-thiazol-2-yl)pyridine-2-carboxamide] | < 1 µM | < 1 µM | < 1 µM
Nc1ccc(-c2nccs2)nc1C(=O)Nc1cnccc1N1CCC[C@H](N)C1 [Example 632, 3-amino-N-{4-[(3S)-3-aminopiperidin-1-yl]pyridin-3-yl}-6-(1,3-thiazol-2-yl)-pyridine-2-carboxamide] | < 1 µM | < 1 µM | < 1 µM

Results, then the molecule that gave them:

IC50 [1] | IC50 [2] | IC50 [3] | SMILES
< 1 µM | < 1 µM | < 1 µM | Nc1ccc(-c2ccccc2F)nc1C(=O)Nc1cnccc1N1CCCCC1 [Example 589, 3-amino-6-(2-fluoro-phenyl)-pyridine-2-carboxylic acid (3,4,5,6-tetrahydro-2H-[1,4′]bipyridinyl-3′-yl)-amide]
< 1 µM | 1 to 10 µM | 1 to 10 µM | Nc1ncc(Br)nc1C(=O)Nc1cnccc1N1CCCC(N(Cc2ccccc2)Cc2ccccc2)C1 (stereo not drawn) [Example 599, 3-amino-6-bromo-pyrazine-2-carboxylic acid (3-dibenzylamino-3,4,5,6-tetrahydro-2H-[1,4′]bi-pyridinyl-3′-yl)-amide]
< 1 µM | < 1 µM | < 1 µM | Nc1ccc(-c2ccncc2NC(=O)c2nc(-c3ccccc3F)ccc2N)cn1 [Example 604, 3-amino-N-(6-amino-3,4′-bipyridin-3′-yl)-6-(2-fluoro-phenyl)pyridine-2-carboxamide]
< 1 µM | < 1 µM | < 1 µM | Nc1ccc(-c2ccccc2F)nc1C(=O)Nc1cnccc1-c1ccncc1 [Example 606, 3-amino-N-4,4′-bipyridin-3-yl-6-(2-fluorophenyl)-pyridine-2-carboxamide]
< 1 µM | < 1 µM | < 1 µM | Nc1ccc(-c2ccccc2F)nc1C(=O)Nc1cnccc1-c1ccncc1Cl [Example 615, 3-amino-N-(3′-chloro-4,4′-bipyridin-3-yl)-6-(2-fluorophenyl)pyridine-2-carboxamide]
< 1 µM | < 1 µM | < 1 µM | Nc1cc(-c2ccncc2NC(=O)c2nc(-c3c(F)cccc3F)ccc2N)ccn1 [Example 617, 3-amino-N-(2′-amino-4,4′-bipyridin-3-yl)-6-(2,6-difluorophenyl)pyridine-2-carboxamide]
< 1 µM | < 1 µM | < 1 µM | Cc1cc(-c2ccncc2NC(=O)c2nc(-c3c(F)cccc3F)c(F)cc2N)cc(N)n1 [Example 619, 3-amino-N-(2′-amino-6′-methyl-4,4′-bipyridin-3-yl)-6-(2,6-difluorophenyl)-5-fluoropyridine-2-carboxamide]
< 1 µM | < 1 µM | < 1 µM | Nc1ccc(-c2c(F)cccc2F)nc1C(=O)Nc1cnccc1-c1cc(Cl)nc(C(F)(F)F)c1 [Example 621, 3-amino-N-[2′-chloro-6′-(trifluoromethyl)-4,4′-bipyridin-3-yl]-6-(2,6-difluorophenyl)pyridine-2-carboxamide]
< 1 µM | < 1 µM | < 1 µM | Cc1cc(-c2ccncc2NC(=O)c2nc(-c3ccccc3F)ccc2N)cc(N)n1 [Example 624, 3-amino-N-(2′-amino-6′-methyl-4,4′-bipyridin-3-yl)-6-(2-fluorophenyl)pyridine-2-carboxamide]
< 1 µM | < 1 µM | < 1 µM | Cc1cc(-c2ccncc2NC(=O)c2nc(-c3ccccc3F)ccc2N)nc(N)n1 [Example 626, 3-amino-N-[4-(2-amino-6-methylpyrimidin-4-yl)-pyridin-3-yl]-6-(2-fluoro-phenyl)pyridine-2-carboxamide]
< 1 µM | < 1 µM | < 1 µM | Nc1cc(-c2ccncc2NC(=O)c2nc(C3CCCCC3)ccc2N)nc(C(F)(F)F)n1 [Example 633, 3-Amino-6-cyclohexyl-pyridine-2-carboxylic acid [4-(6-amino-2-trifluoro-methyl-pyrimidin-4-yl)-pyridin-3-yl]-amide]
